Experimental data from patent publication US20240409548A1, “MODULATORS OF THE BETA-3 ADRENERGIC RECEPTOR USEFUL FOR THE TREATMENT OR PREVENTION OF DISORDERS RELATED THERETO” (Arena Pharmaceuticals, Inc., priority 2021, published 2024).
Converted amounts (≈) assume the structure as drawn. Read-outs that look alike come from different tables or passages of the source.

Experiments:
[1] = Aqueous solubility at various pH values (pH-solubility fit); conditions: for aqueous solubility: A=active free base
Procedure: Solubility of Compound A in aqueous media was measured at various pH values. The conjugate acid ionization constant and intrinsic solubility of the free base were derived by fitting the measured pH-solubility data to the slope-intercept form of the Henderson-Hasselbalch equation for monobasic molecules.

[2] = for Solubility (mM) / Solubility (mg/mL): 21° C.±1° C.
Procedure: (§1) Compound C was slurried in various solvents (Table 1) for 2 weeks at ambient temperature (21° C.±1° C.). […] Solubility was determined after 1 day of equilibration and slurries were allowed to stir for 2 weeks. The temperature was monitored and determined to be 21° C.±1° C. for the duration of the study. At the end of 2 weeks, the slurries were removed from stirring and solids were isolated by centrifuge filtration using 0.45-μm nylon filters, allowed to air-dry overnight, and then analyzed by PXRD. Selected samples were also analyzed by TGA and DSC.
Solubility was determined by gravimetric analysis after ˜24 hours of equilibration at ambient temperature (21° C.±1° C.). Samples were separated by centrifuge filtration using an Eppendorf 5417C model centrifuge. Suspension samples were placed into centrifuge filter tubes with 0.45-μm nylon membrane filter and spun at 10000 rpm for 1 minute. Filtrate aliquots of 10 to 20 μL were placed into separate thermogravimetric analyzer pans, previously tared on a TA Instruments Q5000. The filtrates were dried to achieve dry residual solid weights. Solubility was calculated by dividing the dry residual weight by the aliquot volume.

[3] = slurry, ambient temperature
Procedure: as §1
X-ray diffraction analysis was performed using a PANalytical. X′Pert PRO MPD powder X-ray diffractometer (EQ0233). Samples were prepared by placing several milligrams of compound onto a sample holder and smoothing flat.

[4] = Dynamic moisture sorption (DMS); type: physicochemical
Procedure: Dynamic Moisture Sorption analysis was performed using a TA Instruments Q5000 SA (EQ2418). The sample was prepared for DMS analysis by placing ˜5 mg of compound into a tared sample holder.

[5] = dimethyl sulfoxide (remained a solution), ~24 hours
[6] = methyl t-butyl ether, ~24 hours equilibration
[7] = water/acetone (1:20), ~24 hours
[8] = water/acetonitrile (1:20), ~24 hours
[9] = water/isopropyl alcohol (1:20), ~24 hours

SMILES: CCn1cc(S(=O)(=O)N2CCC3(CC2)C[C@@H](NC[C@H](O)COc2cccc(S(C)(=O)=O)c2)CO3)c(=O)c2ccccc21.CCn1cc(S(=O)(=O)N2CCC3(CC2)C[C@@H](NC[C@H](O)COc2cccc(S(C)(=O)=O)c2)CO3)c(=O)c2ccccc21.CS(=O)(=O)O.CS(=O)(=O)O.O [Compound A, 1-ethyl-3-((R)-3-((S)-2-hydroxy-3-(3-(methylsulfonyl)phenoxy)propylamino)-1-oxa-8-azaspiro[4.5]decan-8-ylsulfonyl)quinolin-4(1H)-one mesylate hemihydrate Form 2]
- aqueous solubility [1]: about 28 mgA/mL
- aqueous solubility ([1]; listed as mesylate salt): 28 mgA/mL
- pHmax ([1]; associated with the mesylate salt): 5.7
- Solubility (mM) ([2]; Acetone, ~24 hours): 0.61 mM
- Solubility (mg/mL) ([2]; Acetone, ~24 hours): 0.44 mg/mL
- Solubility (mM) ([2]; Acetonitrile, ~24 hours): 2.31 mM
- Solubility (mg/mL) ([2]; Acetonitrile, ~24 hours): 1.66 mg/mL
- Solubility (mM) ([2]; Tetrahydrofuran, ~24 hours): 0.39 mM
- Solubility (mg/mL) ([2]; Tetrahydrofuran, ~24 hours): 0.28 mg/mL
- Solubility (mM) ([2]; Water, ~24 hours): 52.6 mM
- Solubility (mg/mL) ([2]; Water, ~24 hours): 30.5 mg/mL
- Solubility (mM) [2, 5]: >610 mM
- Solubility (mg/mL) [2, 5]: >437 mg/mL
- Solubility (mM) ([2]; ethyl acetate, ~24 hours): 0.88 mM
- Solubility (mg/mL) ([2]; ethyl acetate, ~24 hours): 0.63 mg/mL
- Solubility (mM) ([2]; ethyl alcohol, ~24 hours): 1.03 mM
- Solubility (mg/mL) ([2]; ethyl alcohol, ~24 hours): 0.73 mg/mL
- solubility ([2]; in methanol, dimethyl sulfoxide, and aqueous systems (high solubility)): > 20000 µM
- solubility ([2]; in most organic solvents (low solubility)): ≤ 1000 µM
- Solubility (mM) ([2]; isopropyl alcohol, ~24 hours): 1.01 mM
- Solubility (mg/mL) ([2]; isopropyl alcohol, ~24 hours): 0.72 mg/mL
- Solubility (mM) ([2]; methyl alcohol, ~24 hours): 21.6 mM
- Solubility (mg/mL) ([2]; methyl alcohol, ~24 hours): 15.5 mg/mL
- Solubility (mM) ([2]; methyl ethyl ketone, ~24 hours): 0.99 mM
- Solubility (mg/mL) ([2]; methyl ethyl ketone, ~24 hours): 0.71 mg/mL
- Solubility (mM) [2, 6]: 0.76 mM
- Solubility (mg/mL) [2, 6]: 0.54 mg/mL
- Solubility (mM) [2, 7]: 47.3 mM
- Solubility (mg/mL) [2, 7]: 33.9 mg/mL
- Solubility (mM) [2, 8]: 97.0 mM
- Solubility (mg/mL) [2, 8]: 69.5 mg/mL
- Solubility (mM) [2, 9]: 29.4 mM
- Solubility (mg/mL) [2, 9]: 21.2 mg/mL
- crystal form stability / conversion ([3]; listed as Form 2): does not convert to any other form at ambient temperature
- hygroscopicity ([4]; DMS scan 0 to 90% RH, 25° C.): non-hygroscopic
- weight change between 30% RH and 90% RH (DMS) ([4]; at 2500, after essentially fully rehydrating): ~0.1%
- total weight change of water during the drying step (DMS) ([4]; condition 4000 and ~1% RH until steady weight in ~1 hour): about 0.35%

SMILES: CCn1cc(S(=O)(=O)N2CCC3(CC2)C[C@@H](NC[C@H](O)COc2cccc(S(C)(=O)=O)c2)CO3)c(=O)c2ccccc21.CCn1cc(S(=O)(=O)N2CCC3(CC2)C[C@@H](NC[C@H](O)COc2cccc(S(C)(=O)=O)c2)CO3)c(=O)c2ccccc21.CS(=O)(=O)O.CS(=O)(=O)O.O [Compound B, 1-ethyl-3-((R)-3-((S)-2-hydroxy-3-(3-(methylsulfonyl)phenoxy)propylamino)-1-oxa-8-azaspiro[4.5]decan-8-ylsulfonyl)quinolin-4(1H)-one mesylate hemihydrate Form 1]
- crystal form stability / conversion ([3]; listed as Form 1): converts to Form 2 in water

SMILES: CCn1cc(S(=O)(=O)N2CCC3(CC2)C[C@@H](NC[C@H](O)COc2cccc(S(C)(=O)=O)c2)CO3)c(=O)c2ccccc21 [Compound D, 1-ethyl-3-((R)-3-((S)-2-hydroxy-3-(3-(methylsulfonyl)phenoxy)propylamino)-1-oxa-8-azaspiro[4.5]decan-8-ylsulfonyl)quinolin-4(1H)-one]
- pKa [1]: 7.44
- solubility ([1]; aqueous buffer): 530 µg/mL (≈ 855 µM)
